The source of these data is ChEMBL document CHEMBL1125004, “Chemistry and pharmacology of the non-benzodiazepine anxiolytic enciprazine and related compounds” (1990).

Activity calls are given as the source filed them. The rule behind the calls is not given here.

What is called ED50 is the midpoint of the dose-response relation.

Assay [1] relates to Rattus norvegicus. Put plainly: Effect on piloerection after oral administration of 100 mg/kg in rat was determined; '-' No effect. It is filed as functional, organism-based. Details: dose 100 mg/kg.
The subject of assay [2] is Rattus norvegicus. The experiment in a line: Effect on piloerection after oral administration of 50 mg/kg in rat was determined; '-' No effect. The assay is classed as functional, organism-based. Details: dose 50 mg/kg.
Assay [3] has as its system Rattus norvegicus. Put plainly: Effect on restlessness after oral administration of 100 mg/kg in rat was determined; '-' No effect. The assay is classed as functional, organism-based. Details: dose 100 mg/kg.
In assay [4] the test system is Rattus norvegicus. The experiment in a line: Effect on restlessness after oral administration of 50 mg/kg in rat was determined; '-' No effect. It is filed as functional, organism-based. Also on record: dose 50 mg/kg.
Assay [5] relates to Rattus norvegicus. Put plainly: Effect on salivation after oral administration of 100 mg/kg in rat was determined; '-' No effect. The assay is classed as functional, organism-based. Details: dose 100 mg/kg.
Assay [6] has as its system Rattus norvegicus. Put plainly: Effect on jumping after oral administration of 100 mg/kg in rat was determined; '-' No effect. The assay is classed as functional, organism-based. Also on record: dose 100 mg/kg.
The subject of assay [7] is Rattus norvegicus. Put plainly: Effect on jumping after oral administration of 50 mg/kg in rat was determined; '-' No effect. Details: dose 50 mg/kg. The assay is classed as functional, organism-based.
Assay [8] relates to Rattus norvegicus. The experiment in a line: Effect on diarrheal after oral administration of 100 mg/kg in rat was determined; '-' No effect. Details: dose 100 mg/kg. It is filed as functional, organism-based.
For assay [9], the system named is Rattus norvegicus. Put plainly: Effect on diarrheal after oral administration of 50 mg/kg in rat was determined; '-' No effect. It is filed as functional, organism-based. Details: dose 50 mg/kg.
For assay [10], the system named is Rattus norvegicus. Put plainly: Effect on salivation after oral administration of 50 mg/kg in rat was determined; '-' No effect. It is filed as functional, organism-based. Details: dose 50 mg/kg.
Assay [11] relates to Rattus norvegicus. The experiment in a line: Effect on tremor after oral administration of 100 mg/kg in rat was determined; '-' No effect. It is filed as functional, organism-based. Details: dose 100 mg/kg.
Assay [12] concerns Rattus norvegicus. The experiment in a line: Effect on tremor after oral administration of 50 mg/kg in rat was determined; '-' No effect. It is filed as functional, organism-based. Also on record: dose 50 mg/kg.
Assay [13] is described as follows: Ratio of ED50 (ethanol) to that of ED50 (fighting). The assay is classed as functional.
A short description of assay [14]: Ratio of ED50 (hexobarbital) to that of ED50 (fighting). The assay is classed as functional.
Assay [15] is described as follows: Ratio of ED50 (rotarod) to that of ED50 (fighting). The assay is classed as functional. On the technique in general: The rotarod test checks motor coordination on a turning rod.
Assay [16] has as its system Monkey. The experiment in a line: Tested for ability to maintain self-administration after administration of 0.3 mg/kg in monkey 3038 (1-2). The assay is classed as functional, Cercopithecidae.
Assay [17] concerns Monkey. Put plainly: Tested for ability to maintain self-administration after administration of 0.3 mg/kg in monkey 9079 (0-2). The assay is classed as functional, Cercopithecidae.
For assay [18], the system named is Monkey. Put plainly: Tested for ability to maintain self-administration after administration of 0.3 mg/kg in monkey 9083 (1-4). It is filed as functional, Cercopithecidae.
Assay [19] relates to Monkey. Put plainly: Tested for ability to maintain self-administration after administration of 1 mg/kg in monkey 9079 (0-3). The assay is classed as functional, Cercopithecidae.
For assay [20], the system named is Monkey. The experiment in a line: Tested for ability to maintain self-administration after administration of 0.3 mg/kg in monkey 3017 (0-1). The assay is classed as functional, Cercopithecidae.
Assay [21] has as its system Monkey. Put plainly: Tested for ability to maintain self-administration after administration of 0.003 mg/kg in monkey 2036 Range (5-9). The assay is classed as functional, Cercopithecidae.
In assay [22] the test system is Monkey. The experiment in a line: Tested for ability to maintain self-administration after administration of 0.003 mg/kg in monkey 2037 Range (2-6). The assay is classed as functional, Cercopithecidae.
Assay [23] concerns Monkey. Put plainly: Tested for ability to maintain self-administration after administration of 0.003 mg/kg in monkey 3017 Range (1-2). It is filed as functional, Cercopithecidae.
Assay [24] concerns Monkey. Put plainly: Tested for ability to maintain self-administration after administration of 0.003 mg/kg in monkey 3038 Range (1-7). The assay is classed as functional, Cercopithecidae.
Assay [25] concerns Monkey. Put plainly: Tested for ability to maintain self-administration after administration of 0.003 mg/kg in monkey 9079 Range (1-6). It is filed as functional, Cercopithecidae.
The test system of assay [26] is Monkey. The experiment in a line: Tested for ability to maintain self-administration after administration of 0.003 mg/kg in monkey 9083 Range (13-21). It is filed as functional, Cercopithecidae.
The test system of assay [27] is Monkey. Put plainly: Tested for ability to maintain self-administration after administration of 0.01 mg/kg in monkey 9079 Range (1-3). The assay is classed as functional, Cercopithecidae.
Assay [28] concerns Monkey. Put plainly: Tested for ability to maintain self-administration after administration of 0.03 mg/kg in monkey 2036 Range (2-3). The assay is classed as functional, Cercopithecidae.
For assay [29], the system named is Monkey. Put plainly: Tested for ability to maintain self-administration after administration of 0.03 mg/kg in monkey 2037 Range (7-9). It is filed as functional, Cercopithecidae.
The subject of assay [30] is Monkey. Put plainly: Tested for ability to maintain self-administration after administration of 0.03 mg/kg in monkey 3017 Range (1-7). It is filed as functional, Cercopithecidae.
Assay [31] relates to Monkey. The experiment in a line: Tested for ability to maintain self-administration after administration of 0.03 mg/kg in monkey 3038 Range (1-10). It is filed as functional, Cercopithecidae.
Assay [32] relates to Monkey. The experiment in a line: Tested for ability to maintain self-administration after administration of 0.03 mg/kg in monkey 9079 Range (2-24). It is filed as functional, Cercopithecidae.
Assay [33] deals with Monkey. The experiment in a line: Tested for ability to maintain self-administration after administration of 0.03 mg/kg in monkey 9083 Range (7-11). It is filed as functional, Cercopithecidae.
The test system of assay [34] is Monkey. The experiment in a line: Tested for ability to maintain self-administration after administration of 0.3 mg/kg in monkey 2036 (1-5). It is filed as functional, Cercopithecidae.
For assay [35], the system named is Monkey. The experiment in a line: Tested for ability to maintain self-administration after administration of 0.001 mg/kg in monkey 3038 Range (2-5). It is filed as functional, Cercopithecidae.
Assay [36] deals with Monkey. The experiment in a line: Tested for ability to maintain self-administration after administration of 0.3 mg/kg in monkey 2037 (0-4). The assay is classed as functional, Cercopithecidae.
Assay [37] relates to Mus musculus. Put plainly: Antiaggressive anxiolytic activity in the electroshock-induced fighting test in mice (po); Range (9.6-16.7). It is filed as functional.
Assay [38] concerns Mus musculus. Put plainly: Antiaggressive anxiolytic activity in the electroshock-induced fighting test in mice (po); Range (9.7-19.3). The assay is classed as functional.
The species named for assay [39] is Mus musculus. The experiment in a line: Effect on hexobarbital induced sleep was determined in hexobarbital potentiation test; Range (172.3-227.4). It is filed as functional.
Assay [40] deals with Mus musculus. Put plainly: Antiaggressive anxiolytic activity in the electroshock-induced fighting test in mice (po); Range (0.58-2.63). The assay is classed as functional.
The species named for assay [41] is Mus musculus. Put plainly: Ataxic activity in mice by rotarod test; Range (86.2-116.6). It is filed as functional.

Turning to `COc1ccccc1N1CCN(CC(O)COc2cc(OC)c(OC)c(OC)c2)CC1` (stereo not drawn), the Effect result in assay [1], in assay [2], in [3], in assay [4], in [5] and in assay [6] was “inactive” in each case. The Effect result in assay [7], in assay [8], in [9], in assay [10], in assay [11] and in assay [12] was “inactive” each time. For the same molecule, the Therapeutic index in assay [13] came to 32.5; in assay [14], 33; in [15] it was 86.

Consider `COc1ccccc1N1CCN(CC(O)COc2cc(OC)c(OC)c(OC)c2)CC1` (stereo not drawn) [ENCIPRAZINE], for which the Effect came to 1.3 in assay [16]; 1 in assay [17]; 2.7 in assay [18]; 1.3 in assay [19]; 0.3 in assay [20]; 7 in assay [21]. The Effect in assay [22] was determined as 4.3; in assay [23], 1.7; in [24], 4; in assay [25], 3; in assay [26], 17.7; in assay [27] it was 2. Also, the Effect was 2.3 in [28]; 7.7 in assay [29]; 4.3 in assay [30]; 4.3 in assay [31]; 13.7 in assay [32]; 9 in [33]. Further, the Effect in assay [34] turned out to be 3; in assay [35], 3.5; in [36] it was 2.

`COc1cc(OCC(O)CN2CCN(c3ccc(C)c(C)c3)CC2)cc(OC)c1OC.Cl` (stereo not drawn) registered an ED50 in assay [37] of 13 mg/kg.

On to `COc1cc(OCC(O)CN2CCN(c3ccccc3SC)CC2)cc(OC)c1OC.Cl` (stereo not drawn), for which, in [38], the 50% effect level (ED50) was put at a dose of 14 mg/kg.

Consider `COc1cc(OCC(O)CN2CCN(c3ccccc3O)CC2)cc(OC)c1OC` (stereo not drawn), for which the ED50 in assay [39] is 200 mg/kg; in assay [40], 1.3 mg/kg; in assay [41], 100 mg/kg. Moreover, the Therapeutic index worked out at 154 in assay [14] and 77 in [15].
